Measurements taken from article PMC8698070, “The Zoonotic Helminth Parasite Fasciola hepatica: Virulence-Associated Cathepsin B and Cathepsin L Cysteine Peptidases Secreted by Infective Newly Excysted Juveniles (NEJ)” (Animals : an Open Access Journal from MDPI, 2021).
Entries after “also recorded” stand apart in the source; their conditions may differ. One block for each compound: values may come before it. Where a SMILES comes first, the peptide text is derived from it. The star is where a group is joined. Cbz = O=C(OCc1ccccc1)*; CH2F = FC*

Assays:
[1] = target: FhCB1 (Fasciola hepatica, UniProt Q8I7B2); assay: Inhibition of recombinant FhCB1, fluorogenic substrate assay (Z-Phe-Arg-AMC); format: biochemical; conditions: for inhibition of enzymatic activity (inhibitor screen, Figure 5), in words: FhCB1, inhibitor 1000-15 nM; for Ki: read-out: inhibition constant Ki
FhCB1, sequence (Q8I7B2 entry or part of it): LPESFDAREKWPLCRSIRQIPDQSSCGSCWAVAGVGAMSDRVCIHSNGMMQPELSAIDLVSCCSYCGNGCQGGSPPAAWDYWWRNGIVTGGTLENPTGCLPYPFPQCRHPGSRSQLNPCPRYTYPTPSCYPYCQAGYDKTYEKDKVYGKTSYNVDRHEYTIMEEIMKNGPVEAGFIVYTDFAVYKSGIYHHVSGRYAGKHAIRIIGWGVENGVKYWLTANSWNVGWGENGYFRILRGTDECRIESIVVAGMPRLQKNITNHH
Procedure: (§1) Recombinant peptidases were assayed for enzymatic activity using a fluorogenic substrate assay. The reactions were carried out in 0.1 M C-P buffer (pH 7.0) with 1 mM DTT in a final volume of 200 μL, in a black 96-well plate. Each well contained activated enzyme (140 nM) and 20 μM fluorogenic substrate, which was added to start the reaction. All assays were run in triplicate at 37 °C for 1 h. Enzyme activity was monitored by rate of hydrolysis and subsequent release of the AMC group on the synthetic peptide substrates at an excitation wavelength of 370 nm and an emission wavelength of 460 nm, as relative fluorescence units (RFU), in a PolarStar Omega Spectrophotometer (BMG Labtech, Aylesbury, UK). All data were plotted and analysed using MARS Data Analysis Software (BMG Labtech, UK) and GraphPad Prism version 5.
(§2) Commercially available inhibitors of cathepsin B (Ca074 and Ca074-OMe), cathepsin L (L, L1, LII, LIII and LIV), cathepsin K (KI, KII and KIII) and cathepsin S were purchased from Merck Millipore (Cork, Ireland; Supplementary Figure S2). The broad-spectrum papain peptidase inhibitor Z-Phe-Ala-FMK was purchased from Enzo Life Sciences (Exeter, UK). These were used to determine and compare the inhibition constant (Ki) against the recombinant FhCBs and FhCL3. All the assays were carried out in 0.1 M C-P buffer with 1 mM DTT and 0.01% Brij® L23, at the pH corresponding to the optimum for each enzyme in a total 200 µL reaction volume. The peptidases (140 nM) were pre-incubated with the inhibitor (1000-15 nM) at room temperature, for 30 min, before starting the reaction by the addition of the substrate that was optimal for each enzyme (FhCB1, Z-Phe-Arg-AMC; FhCB2 and FhCB3, Z-Val-Ile-Arg-AMC; FhCL3, Z-Gly-Pro-Arg-AMC). Substrate concentrations were equal to KM (shown in Table 1) and the apparent inhibition constant (Ki^app) values were calculated with GraphPad Prism 5, using the Morrison equation for tight binding inhibition (Equation (3)). For competitive inhibitors, such as those used in this study, Ki^app was fitted to a second equation (Equation (4)) from which Ki can be determined. (3) vi/vo=1−([E])+[I]+Kiapp)−([E]+[I]+Kiapp)^2−4[E][I] /2[E] (4) Kiapp=Ki(1+[S]/KM)

[2] = target: FhCB2 (Fasciola hepatica, UniProt A5X493); assay: Inhibition of recombinant FhCB2, fluorogenic substrate assay (Z-Val-Ile-Arg-AMC); format: biochemical; conditions: for inhibition of enzymatic activity (inhibitor screen, Figure 5), in words: FhCB2, inhibitor 1000-15 nM; for Ki: read-out: inhibition constant Ki
FhCB2, sequence (A5X493 entry or part of it): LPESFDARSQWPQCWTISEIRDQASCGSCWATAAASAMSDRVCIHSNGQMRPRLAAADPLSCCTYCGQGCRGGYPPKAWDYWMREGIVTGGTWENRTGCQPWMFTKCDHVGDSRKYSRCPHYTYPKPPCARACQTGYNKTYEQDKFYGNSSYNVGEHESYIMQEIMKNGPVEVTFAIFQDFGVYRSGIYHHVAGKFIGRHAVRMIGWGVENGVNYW
Procedure: as §1, §2

[3] = target: FhCB3 (Fasciola hepatica, UniProt A7UNB2); assay: Inhibition of recombinant FhCB3, fluorogenic substrate assay (Z-Val-Ile-Arg-AMC); format: biochemical; conditions: for inhibition of enzymatic activity (inhibitor screen, Figure 5), in words: FhCB3, inhibitor 1000-15 nM; for Ki: read-out: inhibition constant Ki
FhCB3, sequence (A7UNB2 entry or part of it): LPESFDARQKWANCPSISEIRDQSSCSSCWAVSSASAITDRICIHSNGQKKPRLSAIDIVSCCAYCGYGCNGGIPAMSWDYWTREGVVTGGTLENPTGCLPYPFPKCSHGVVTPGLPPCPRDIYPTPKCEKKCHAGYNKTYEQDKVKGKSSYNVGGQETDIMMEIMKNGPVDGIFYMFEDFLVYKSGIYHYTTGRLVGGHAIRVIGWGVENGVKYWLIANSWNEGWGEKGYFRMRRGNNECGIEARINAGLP
Procedure: as §1, §2

[4] = target: FhCL3 (Fasciola hepatica, UniProt A0A879R2T5); assay: Inhibition of recombinant FhCL3, fluorogenic substrate assay (Z-Gly-Pro-Arg-AMC); format: biochemical; conditions: for inhibition of enzymatic activity (inhibitor screen, Figure 5), in words: FhCL3, inhibitor 1000-15 nM; for Ki: read-out: inhibition constant Ki
FhCL3, sequence (A0A879R2T5 entry or part of it): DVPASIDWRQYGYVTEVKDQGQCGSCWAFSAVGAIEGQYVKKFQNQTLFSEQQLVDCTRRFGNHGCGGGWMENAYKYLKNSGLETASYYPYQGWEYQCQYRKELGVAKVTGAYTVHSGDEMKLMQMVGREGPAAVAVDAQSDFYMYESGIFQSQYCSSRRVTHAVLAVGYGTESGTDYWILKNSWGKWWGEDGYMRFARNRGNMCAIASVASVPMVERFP
Procedure: as §1, §2

[5] = target: T1, human cathepsin B (HsCB) (Homo sapiens, UniProt P07858); assay: Inhibitor screen against human cathepsin B control; format: biochemical
T1 construct: purchased Sigma-Aldrich; host or cells: human embryonic kidney cells
Excerpt: (§3) The Schistosoma mansoni cathepsin B1 (SmCB1) was also produced in our laboratory using P. pastoris as described above. The human cathepsin B (HsCB) and cathepsin L1 (HsCL1) were produced in human embryonic kidney cells (Sigma-Aldrich).
as §2, with “All the assays were carried out in 0.1 M C-P buffer with 1 mM DTT and 0.01% Brij® L23, at the pH corresponding to the optimum for each enzyme in a total 200 µL reaction volume. The peptidases (140 nM) were pre-incubated with the inhibitor (1000-15 nM) at room temperature, for 30 min, before starting the reaction by the addition of the substrate that was optimal for each enzyme (FhCB1, Z-Phe-Arg-AMC; FhCB2 and FhCB3, Z-Val-Ile-Arg-AMC; FhCL3, Z-Gly-Pro-Arg-AMC).” left out
The broad-range cysteine peptidase inhibitor Z-Phe-Ala-FMK was also included (Figure 5).
Figure 5 Profile of inhibition of FhCB1, FhCB2, FhCB3 and FhCL3. Commercially available inhibitors of cathepsin B (Ca074 and Ca07a-OMe), cathepsin L (L, L1, LII, LIII and LIV), cathepsin K (KI, KII and KIII), cathepsin S and the broad-spectrum papain peptidase inhibitor Z-Phe-Ala-FMK (A–L) were used to determine and compare the inhibition constant against recombinants FhCB1, FhCB2, FhCB3, FhCL3, HsCB and HsCL1. […] Error bars indicate standard deviation of three replicates.

[6] = target: T2, cathepsin L1 (HsCL1) (Homo sapiens, UniProt P07711); assay: Inhibitor screen against human cathepsin L1 control; format: biochemical
T2 construct: purchased Sigma-Aldrich; host or cells: human embryonic kidney cells
T2 sequence (P07711 114-333): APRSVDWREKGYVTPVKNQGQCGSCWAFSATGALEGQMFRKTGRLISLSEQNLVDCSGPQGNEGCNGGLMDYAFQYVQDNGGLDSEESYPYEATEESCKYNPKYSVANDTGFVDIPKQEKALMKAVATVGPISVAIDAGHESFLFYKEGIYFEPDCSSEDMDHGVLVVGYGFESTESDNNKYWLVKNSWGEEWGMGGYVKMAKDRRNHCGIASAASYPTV
Excerpt: as §3, §2
A panel of 12 commercially available cysteine peptidase inhibitors that preferentially target mammalian cathepsin B (Ca074 and Ca074-OMe), cathepsin L (L, L1, LII, LIII and LIV) cathepsin S (S) and cathepsin K (KI, KII and KIII) were screened against the FhCBs, FhCL3 and, as controls, HsCB and HsCL1. The broad-range cysteine peptidase inhibitor Z-Phe-Ala-FMK was also included (Figure 5).
Figure 5 Profile of inhibition of FhCB1, FhCB2, FhCB3 and FhCL3. Commercially available inhibitors of cathepsin B (Ca074 and Ca07a-OMe), cathepsin L (L, L1, LII, LIII and LIV), cathepsin K (KI, KII and KIII), cathepsin S and the broad-spectrum papain peptidase inhibitor Z-Phe-Ala-FMK (A–L) were used to determine and compare the inhibition constant against recombinants FhCB1, FhCB2, FhCB3, FhCL3, HsCB and HsCL1. Activity is represented as the percentage of enzymatic activity observed by hydrolysis of a fluorogenic quenched peptide substrate following a pre-incubation with inhibitor in relation to the activity of the enzyme alone. Error bars indicate standard deviation of three replicates.

[7] = test system: Cc1cc(=O)oc2cc(NC(=O)[C@H](CCCNC(=N)N)NC(=O)[C@H](Cc3ccccc3)NC(=O)OCc3ccccc3)ccc12; assay: purified protein, by the assay type; conditions: substrate 2000–4 μM, optimum pH, ± standard deviation, pH 7.0, 37.0 °C
Procedure: (§4) To determine the kinetic constants, Kcat, KM and Kcat/KM of the activated peptidases against the Z-Phe-Arg-AMC, Z-Gly-Pro-Arg-AMC and Z-Val-Ile-Arg-AMC substrates were used at concentrations of 2000–4 μM over a series of 10 dilutions using enzymes, buffer and assay conditions as described above. The kinetic constants, KM and Vmax, were calculated using the Michaelis–Menten equation (Equation (1)) in a non-linear regression analysis of initial reaction velocity against substrate concentration (built into GraphPad Prism 5). The value of KM can then be fitted to Equation (2) to determine the catalytic constant Kcat. (1) ν=d[P]/dt=Vmax[S]/KM+[S] where ν is the initial reaction velocity, [P] is the concentration of the formed product, [S] is the substrate concentration, Vmax is the maximum rate achieved by the system and KM is the Michaelis–Menten constant, which represents the concentration of substrate at which the reaction has a rate equal to half of Vmax. (2) ν=Kcat[Et]{}[S]/KM+[S] where [Et] is the enzyme concentration and Kcat is the catalytic constant, representing the measure of substrate molecules converted to product by enzyme per second.

[8] = test system: CC[C@H](C)[C@H](NC(=O)[C@@H](NC(=O)OCc1ccccc1)C(C)C)C(=O)N[C@@H](CCCNC(=N)N)C(=O)Nc1ccc2c(C)cc(=O)oc2c1; assay: purified protein, by the assay type; conditions: other: FhCB3; substrate 2000–4 μM, optimum pH; ± standard deviation; pH 7.0; 37.0 °C
Procedure: as §4

[9] = test system: Cc1cc(=O)oc2cc(NC(=O)[C@H](CCCNC(=N)N)NC(=O)[C@@H]3CCCN3C(=O)CNC(=O)OCc3ccccc3)ccc12; assay: purified protein, by the assay type; conditions: substrate 2000–4 μM, optimum pH, ± standard deviation, pH 7.0, 37.0 °C
Procedure: as §4

[10] = recombinant FhCB1 140 nM, 30 min pre-incubation, substrate Z-Phe-Arg-AMC at KM, optimum pH, ± SEM
[11] = recombinant FhCB2 140 nM, 30 min pre-incubation, substrate Z-Val-Ile-Arg-AMC at KM, optimum pH, ± SEM
[12] = recombinant FhCB3 140 nM, 30 min pre-incubation, substrate Z-Val-Ile-Arg-AMC at KM, optimum pH, ± SEM
[13] = recombinant FhCL3 140 nM, 30 min pre-incubation, substrate Z-Gly-Pro-Arg-AMC at KM, optimum pH, ± SEM

Compound: CCCNC(=O)[C@H]1O[C@@H]1C(=O)N[C@H](C(=O)N1CCC[C@H]1C(=O)O)[C@@H](C)CC [Ca074]
inhibition of enzymatic activity (inhibitor screen, Figure 5), in words [1]: poor inhibitors; also recorded: very poor inhibitors | inhibition constant Ki [1, 10]: poor inhibition | Ki [1, 10]: 7320 ± 934 nM | inhibition of enzymatic activity (inhibitor screen, Figure 5), in words [2]: poor inhibitors; also recorded: very poor inhibitors | inhibition constant Ki [2, 11]: poor inhibition | Ki [2, 11]: 5930 ± 567 nM | inhibition of enzymatic activity (inhibitor screen, Figure 5), in words [3]: poor inhibitors; also recorded: very poor inhibitors | inhibition constant Ki [3, 12]: poor inhibition | Ki [3, 12]: 540 ± 45.2 nM | inhibition of enzymatic activity (inhibitor screen, Figure 5), in words [4]: poor inhibitors | inhibition constant Ki [4, 13]: poor inhibition | Ki [4, 13]: 603 ± 133 nM | inhibition of enzymatic activity (inhibitor screen, Figure 5), in words [5]: selective for HsCB compared to HsCL1

Compound: O=C(NC(Cc1ccccc1)C(=O)NC(Cc1ccccc1)C(=O)CF)OCc1ccccc1 (stereo not drawn) [Inhibitor L1] (Cbz-Phe-Phe-CH2F; configuration not given here)
inhibition of enzymatic activity (inhibitor screen, Figure 5), in words [1]: most effective at blocking | inhibition of enzymatic activity (inhibitor screen, Figure 5), in words [3]: most effective at blocking | inhibition of enzymatic activity (inhibitor screen, Figure 5), in words [6]: specificity for HsCL1 over HsCBs

Compound: CC(C)C[C@H](NC(=O)OCc1ccccc1)C(=O)NNC(=O)NNC(=O)[C@H](CC(C)C)NC(=O)C(N)Cc1ccccc1 (stereo partly drawn) [KIII]
inhibition of enzymatic activity (inhibitor screen, Figure 5), in words [1]: weak inhibitors; also recorded: generally poor inhibitors | inhibition of enzymatic activity (inhibitor screen, Figure 5), in words [2]: no effect; also recorded: generally poor inhibitors; also recorded: not inhibited | inhibition of enzymatic activity (inhibitor screen, Figure 5), in words [3]: abrogated the activity; also recorded: reduced | inhibition of enzymatic activity (inhibitor screen, Figure 5), in words [4]: reduced

Compound: CC(C)C[C@H](NC(=O)OCc1ccccc1)C(=O)NNC(=O)NNC(=O)[C@H](CC(C)C)NC(=O)C(Cc1ccccc1)NC(=O)OC(C)(C)C (stereo partly drawn) [KII]
inhibition of enzymatic activity (inhibitor screen, Figure 5), in words [1]: weak inhibitors; also recorded: generally poor inhibitors | Ki [1, 10]: 466 ± 40.6 nM | inhibition of enzymatic activity (inhibitor screen, Figure 5), in words [2]: no effect; also recorded: generally poor inhibitors; also recorded: not inhibited | Ki [2, 11]: > 1000 nM | inhibition of enzymatic activity (inhibitor screen, Figure 5), in words [3]: abrogated the activity; also recorded: reduced | Ki [3, 12]: 227 ± 28.3 nM | inhibition of enzymatic activity (inhibitor screen, Figure 5), in words [4]: reduced | Ki [4, 13]: 0.7 ± 0.19 nM

Compound: CC(C)C[C@H](NC(=O)OCc1ccccc1)C(=O)NCC(=O)CNC(=O)[C@H](CC(C)C)NC(=O)OCc1ccccc1 [KI]
inhibition of enzymatic activity (inhibitor screen, Figure 5), in words [1]: generally poor inhibitors | inhibition of enzymatic activity (inhibitor screen, Figure 5), in words [2]: generally poor inhibitors; also recorded: not inhibited | inhibition of enzymatic activity (inhibitor screen, Figure 5), in words [3]: reduced | inhibition of enzymatic activity (inhibitor screen, Figure 5), in words [4]: reduced

inhibition of enzymatic activity (inhibitor screen, Figure 5), in words [6]: specificity for HsCL1 over HsCBs
Compound: COc1ccc(C(=O)ONC(=O)CNC(=O)C(Cc2ccccc2)NC(=O)OCc2ccccc2)cc1 (stereo not drawn) [LIII]

inhibition of enzymatic activity (inhibitor screen, Figure 5), in words [6]: specificity for HsCL1 over HsCBs
Compound: CC[C@H](C)[C@H](NS(=O)(=O)c1cccc2ccccc12)C(=O)N[C@H](C=O)Cc1c[nH]c2ccccc12 [LIV]

Compound: O=C(NCc1ccccc1)C(Cc1ccccc1)NC(=O)C1OC1C(=O)NCCc1ccc(O)cc1 (stereo not drawn) [L]
inhibition of enzymatic activity (inhibitor screen, Figure 5), in words [1]: did not inhibit | inhibition of enzymatic activity (inhibitor screen, Figure 5), in words [2]: did not inhibit | inhibition of enzymatic activity (inhibitor screen, Figure 5), in words [3]: significantly reduced | inhibition of enzymatic activity (inhibitor screen, Figure 5), in words [4]: significantly reduced | inhibition of enzymatic activity (inhibitor screen, Figure 5), in words [6]: specificity for HsCL1 over HsCBs

Compound: FhCB1 (Fasciola hepatica)
Km ([7]; other: FhCB1): 69 ± 5 µM | kcat ([7]; other: FhCB1): 1.0 ± 0.2 s⁻¹ | kcat/Km ([7]; other: FhCB1): 13,596 M^-1S^-1

Compound: FhCB3 (Fasciola hepatica)
Km [8]: 42 ± 4 µM | kcat [8]: 0.1 ± 0.004 s⁻¹ | kcat/Km [8]: 2266 M^-1S^-1 | Km ([9]; other: FhCB3): 40 ± 4 µM | kcat ([9]; other: FhCB3): 0.02 ± 0.002 s⁻¹ | kcat/Km ([9]; other: FhCB3): 579 M^-1S^-1 | Km ([7]; other: FhCB3): 27 ± 2 µM | kcat ([7]; other: FhCB3): 0.05 ± 0.007 s⁻¹ | kcat/Km ([7]; other: FhCB3): 1708 M^-1S^-1

Compound: FhCL3 (Fasciola hepatica)
Km ([9]; other: FhCL3): 27 ± 2 µM | kcat ([9]; other: FhCL3): 0.5 ± 0.07 s⁻¹ | kcat/Km ([9]; other: FhCL3): 17,960 M^-1S^-1
